# From the NIST ThermoML archive (doi:10.1016/j.jct.2012.11.011)
# ± gives the expanded uncertainty stated by the source.
# Settings: Liquid, Vibrating tube method
"mass density (288.15 K, 100 kPa)","mass density (288.15 K, 5000 kPa)","mass density (288.15 K, 10000 kPa)","mass density (288.15 K, 20000 kPa)","mass density (288.15 K, 30000 kPa)","mass density (288.15 K, 40000 kPa)","mass density (298.15 K, 100 kPa)","mass density (298.15 K, 5000 kPa)","mass density (298.15 K, 10000 kPa)","mass density (298.15 K, 20000 kPa)","mass density (298.15 K, 30000 kPa)","mass density (298.15 K, 40000 kPa)","mass density (308.15 K, 100 kPa)","mass density (308.15 K, 5000 kPa)","mass density (308.15 K, 10000 kPa)","mass density (308.15 K, 20000 kPa)","mass density (308.15 K, 30000 kPa)","mass density (308.15 K, 40000 kPa)",Structure (SMILES)
1076.5 ± 0.4 kg/m3,1080.6 ± 0.4 kg/m3,1084.8 ± 0.4 kg/m3,1092.8 ± 0.4 kg/m3,1100.3 ± 0.5 kg/m3,1107.5 ± 0.5 kg/m3,1062.9 ± 0.4 kg/m3,1068 ± 0.4 kg/m3,1072.1 ± 0.4 kg/m3,1080.5 ± 0.4 kg/m3,1088.5 ± 0.4 kg/m3,1095.9 ± 0.5 kg/m3,1049.4 ± 0.3 kg/m3,1054.6 ± 0.4 kg/m3,1059.4 ± 0.4 kg/m3,1068.3 ± 0.4 kg/m3,1076.7 ± 0.4 kg/m3,1084.5 ± 0.5 kg/m3,COC(=O)OC [dimethyl carbonate]
980.3 ± 0.2 kg/m3,984.5 ± 0.2 kg/m3,988.6 ± 0.2 kg/m3,996.3 ± 0.2 kg/m3,1003.6 ± 0.2 kg/m3,1010.5 ± 0.2 kg/m3,968.9 ± 0.3 kg/m3,973.8 ± 0.3 kg/m3,977.8 ± 0.2 kg/m3,986 ± 0.2 kg/m3,993.6 ± 0.2 kg/m3,1000.8 ± 0.2 kg/m3,957.7 ± 0.3 kg/m3,962.4 ± 0.3 kg/m3,967.1 ± 0.3 kg/m3,975.7 ± 0.3 kg/m3,983.8 ± 0.2 kg/m3,991.3 ± 0.2 kg/m3,CCOC(=O)OCC [diethyl carbonate]
706.6 ± 0.3 kg/m3,710.9 ± 0.4 kg/m3,714.7 ± 0.4 kg/m3,721.7 ± 0.5 kg/m3,728.1 ± 0.6 kg/m3,734.3 ± 0.7 kg/m3,698.6 ± 0.3 kg/m3,703.4 ± 0.4 kg/m3,707 ± 0.4 kg/m3,714.6 ± 0.5 kg/m3,721.4 ± 0.6 kg/m3,727.7 ± 0.7 kg/m3,690.5 ± 0.3 kg/m3,695 ± 0.4 kg/m3,699.4 ± 0.4 kg/m3,707.3 ± 0.5 kg/m3,714.5 ± 0.6 kg/m3,720.8 ± 0.7 kg/m3,CCCCCCCC [octane]
733.6 ± 0.3 kg/m3,737.2 ± 0.3 kg/m3,740.7 ± 0.4 kg/m3,747.2 ± 0.5 kg/m3,753.2 ± 0.5 kg/m3,758.9 ± 0.6 kg/m3,726 ± 0.3 kg/m3,730.2 ± 0.3 kg/m3,733.5 ± 0.4 kg/m3,740.3 ± 0.5 kg/m3,746.5 ± 0.5 kg/m3,752.2 ± 0.6 kg/m3,718.3 ± 0.3 kg/m3,722.4 ± 0.3 kg/m3,726.2 ± 0.4 kg/m3,733.4 ± 0.5 kg/m3,740 ± 0.5 kg/m3,745.9 ± 0.6 kg/m3,CCCCCCCCCC [decane]
